Assays:
HCC1395 cells = assay: MTT assay with PARP inhibitors with or without zelpolib; assay type: cell-based, human; settings: for sensitivity of HCC1395 cells to the PARP inhibitor alone: HR-proficient triple-negative breast cancer cell line
Protocol: However, there have been minimal clinical benefits for HR-proficient cancers^37-41. Since zelpolib can inhibit HR, we explored the effect of zelpolib in combination with PARP inhibitors on HR-proficient cancer cells. The hypothesis is that zelpolib will lead to an HR-defect through inhibition of Pol δ and render HR-proficient cells sensitive to PARP inhibition. […] The cells were treated with increasing concentrations of PARP inhibitor Niraparib (FIG. 5B) or Rucaparib (FIG. 5C) in the absence or presence of 2.5 μM zelpolib for 48 hrs. The number of cells were then analyzed by MTT assay.
(§1) Human cancer cells (5×10^3-7.5×10^3) were initially seeded in 96-well plates (Cellstar) containing 0.2 ml media per well. After 24 hrs, these cells were treated with variable concentrations drug combinations for 48-72 hrs. Subsequently, 4,5-dimethylthiazol-2-yl-2,5-diphenyltetrazolium bromide (MTT) (20 μl of 5 mg/ml) was added to each well for 3 hrs. Formazan crystals were then dissolved in 150 μl DMSO and optical density was read at 490 nm^25. All experiments were performed in triplicates. Results were analyzed by GraphPad Prism. Data represent mean value±SEM for each concentration of inhibitor combinations.

MCF7 cells = assay: Cell proliferation assay, MTT method; assay type: cell-based, human; settings: 72 h
Source text: DNA replication precedes cell division. Thus, cancer cells cannot divide and proliferate without successful chromosomal duplication. A DNA polymerase inhibitor should inhibit cancer cell proliferation. We characterized the antiproliferative properties of zelpolib on a number of cell lines originated from pancreatic cancer (BxPC-3) and breast cancer (MCF7 for ER+ breast cancer). In addition, we developed a cisplatin resistant subline of a pancreatic cancer cell line, R-BxPC3 for our studies as well. We used the MTT method^25 for analyzing cell proliferation. This assay is based on the reduction of 3-(4,5-dimethylthiazol-2-yl)-2,5-diphenyltetrazolium bromide by live cells to an insoluble formazon, which were subsequently dissolved in DMSO and quantified by UV absorbance. Therefore, the cell number is proportional to the optical density in the established linear region. […] The plateau phenomena indicate inhibition of proliferation without cell killing, similar to these observed from hydroxyurea^26, aphidicolin^27, and to a certain extent, methotrexate treatments^28. Direct inhibition of DNA polymerase activity provides a unique mechanism that is not employed by any of the current cancer therapeutics. We selected a number of most widely prescribed chemotherapeutics with distinct mechanisms to compare their antiproliferative potential in the 2 cancer cell lines. We included alkylating agent cisplatin, antimetabolites methotrexate and 5-flourouracil (5FU)^29-31. […] Whereas the comparison with cisplatin is biphasic.
as §1

[1] = test system: BRCA1/2 mutant population; settings: maintenance therapy; cited from earlier work

NC(=O)c1cccc2cn(-c3ccc([C@@H]4CCCNC4)cc3)nc12 [Niraparib]
Niraparib concentration with 2.5 μM zelpolib that achieves the effect of 25 μM Niraparib alone (HCC1395 cells; HCC1395 proliferation, 48 hrs): 5 µM
sensitivity of HCC1395 cells to the PARP inhibitor alone (HCC1395 cells): insensitive

CNCc1ccc(-c2[nH]c3cc(F)cc4c3c2CCNC4=O)cc1 [Rucaparib]
sensitivity of HCC1395 cells to the PARP inhibitor alone (HCC1395 cells): insensitive

N.N.[Cl][Pt][Cl] [cisplatin, reference compound]
antiproliferative activity, zelpolib versus cisplatin (MCF7 cells): more effective beyond 5 μM

O=C(c1cc(Cc2n[nH]c(=O)c3ccccc23)ccc1F)N1CCN(C(=O)C2CC2)CC1 [olaparib]
hazard ratio in progression-free survival [1]: 0.18
reduction in the risk of progression or death [1]: 82%

From patent US11324720B2, “Antiproliferative DNA polymerase inhibitor” (NEW YORK MEDICAL COLLEGE, priority 2018, dated 2022)
